Measurements: EPA's ToxValDB 9.5 (doi:10.2903/j.efsa.2016.4492)
Converted amounts (≈) assume the structure as drawn.

Tests used:
[1] = test system: Canidae; conditions: chronic; duration: 1 years; oral; Dog Other; body weight
[2] = test system: Colinus virginianus; conditions: mortality
[3] = test system: Daphnia magna; conditions: chronic/long-term; duration: 21 days
[4] = test system: Folsomia candida; conditions: chronic/long-term; duration: 28 days
[5] = test system: Myriophyllum aquaticum; conditions: chronic/long-term; duration: 7 days; growth
[6] = test system: Oncorhynchus mykiss; conditions: acute; duration: 96 hours; mortality
[7] = test system: Pimephales promelas; conditions: chronic/long-term; duration: 32 days
[8] = test system: Rattus norvegicus
[9] = test system: Typhlodromus pyri; experiment: LR50; higher = less toxic; conditions: not reported; mortality
[10] = test system: Apis mellifera; conditions: acute, mortality

## O=c1ccc(=O)[nH][nH]1 [Maleic hydrazide]
[1]
  NOAEL: 25 mg/kg-day
[2]; acute, oral
  LD50: > 1490 mg/kg
[2]; chronic
  NOEC: 542 mg/kg-day
[3]
  NOEC: 0.57 mg/L
[4]
  NOEC: 113 mg/kg
[5]
  NOEC: 3.2 mg/L
[6]
  LC50: 79.4 µg/mL (≈ 708 µM)
[7]
  NOEC: 9.6 mg/L
[8]; acute, oral, M/F, mortality
  LD50: > 2000 mg/kg
[8]; chronic, duration: 2 years, body weight
  NOAEL: 25 mg/kg-day
[8]; reproduction developmental, body weight
  NOAEL: 398 mg/kg-day
[8]; short-term, duration: 28 days, inhalation
  NOAEL: 22 mg/kg-day
[9]
  LR50: < 3000 g/ha

## O=C1CC=C([O-])N=N1.[K+] [Maleic hydrazide, potassium salt]
[10]; dermal
  LD50: > 100 µg/piece
[10]; oral, unspecified
  LD50: > 100 µg/piece
